Data reported in BindingDB's records for doi:10.1016/0960-894X(94)00458-R (Tumor Biology Center, 1995).
pIC50: −log10 of the molar value.

Assays:
[1] = The activity of cGPK, activated by cGMP, is measured by its ability to transfer phosphate from [gamma-32P]ATP to histone.
[2] = target: Myosin light chain kinase, smooth muscle (Gallus gallus, UniProt P11799); experiment: MLCK assay; conditions: pH 7.2; 30 °C
Description: The activity of MLCK is measured by its ability to transfer 32P from [gamma-32P]ATP to myosin light-chain.

[3] = target: Protein kinase C beta type (Rattus norvegicus, UniProt P68403); experiment: MLCK assay
Protein kinase C beta type, sequence (P68403 whole entry): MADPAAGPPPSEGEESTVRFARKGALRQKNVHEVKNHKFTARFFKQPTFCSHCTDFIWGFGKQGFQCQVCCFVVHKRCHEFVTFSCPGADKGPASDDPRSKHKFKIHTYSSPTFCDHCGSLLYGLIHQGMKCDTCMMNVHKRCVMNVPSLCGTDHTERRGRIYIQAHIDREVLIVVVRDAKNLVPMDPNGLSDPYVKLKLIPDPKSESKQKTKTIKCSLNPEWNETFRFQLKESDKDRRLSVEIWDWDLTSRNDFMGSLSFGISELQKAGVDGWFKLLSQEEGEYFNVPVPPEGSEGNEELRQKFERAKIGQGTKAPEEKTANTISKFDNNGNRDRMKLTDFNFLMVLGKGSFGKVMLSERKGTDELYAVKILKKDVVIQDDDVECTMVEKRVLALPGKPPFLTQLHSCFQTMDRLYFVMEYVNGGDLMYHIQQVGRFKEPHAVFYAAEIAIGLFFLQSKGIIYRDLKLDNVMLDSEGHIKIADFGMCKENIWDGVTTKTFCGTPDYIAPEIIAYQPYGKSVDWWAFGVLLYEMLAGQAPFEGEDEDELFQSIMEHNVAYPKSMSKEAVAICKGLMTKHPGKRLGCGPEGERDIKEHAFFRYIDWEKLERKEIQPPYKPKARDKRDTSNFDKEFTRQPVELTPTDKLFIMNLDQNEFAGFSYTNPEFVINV

[4] = target: T1, cGMP-dependent protein kinase 1 (Bos taurus, UniProt P00516); experiment: cGPK assay
T1 sequence (P00516 whole entry): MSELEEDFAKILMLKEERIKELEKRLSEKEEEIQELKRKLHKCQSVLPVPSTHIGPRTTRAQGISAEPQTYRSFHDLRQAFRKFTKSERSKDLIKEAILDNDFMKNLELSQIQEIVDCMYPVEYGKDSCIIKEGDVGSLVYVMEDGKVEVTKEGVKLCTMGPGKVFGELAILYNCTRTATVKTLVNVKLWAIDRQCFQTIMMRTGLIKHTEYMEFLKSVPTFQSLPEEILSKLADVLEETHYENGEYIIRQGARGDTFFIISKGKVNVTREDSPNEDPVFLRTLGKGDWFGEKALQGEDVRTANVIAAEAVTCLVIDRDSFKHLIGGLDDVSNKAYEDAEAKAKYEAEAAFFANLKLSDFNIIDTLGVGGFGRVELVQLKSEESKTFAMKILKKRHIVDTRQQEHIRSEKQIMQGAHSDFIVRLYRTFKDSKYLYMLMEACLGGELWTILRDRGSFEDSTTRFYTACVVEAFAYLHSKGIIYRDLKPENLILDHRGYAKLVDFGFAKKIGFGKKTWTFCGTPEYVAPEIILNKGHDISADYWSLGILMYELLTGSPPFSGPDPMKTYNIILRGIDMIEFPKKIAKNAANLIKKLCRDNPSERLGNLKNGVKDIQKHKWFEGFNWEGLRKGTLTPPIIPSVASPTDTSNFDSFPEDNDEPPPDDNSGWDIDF
Description: The activity of cGPK, activated by cGMP, is measured by its ability to transfer phosphate from [gamma-32P]ATP to histone.

[5] = target: cAMP-dependent protein kinase catalytic subunit alpha (Bos taurus, UniProt P00517); experiment: PKA assay
Description: The activity of PKA, activated by cAMP, is measured by its ability to transfer phosphate from [gamma-32P]ATP to histone.

[6] = target: Tyrosine-protein phosphatase non-receptor type 2 (Mus musculus); experiment: TPK assay
Description: The activity of TPK is measured by its ability to transfer 32P from [gamma-32P]ATP to Poly(Glu,Tyr; 4:l).

Myosin light chain kinase, smooth muscle, sequence (P11799 whole entry): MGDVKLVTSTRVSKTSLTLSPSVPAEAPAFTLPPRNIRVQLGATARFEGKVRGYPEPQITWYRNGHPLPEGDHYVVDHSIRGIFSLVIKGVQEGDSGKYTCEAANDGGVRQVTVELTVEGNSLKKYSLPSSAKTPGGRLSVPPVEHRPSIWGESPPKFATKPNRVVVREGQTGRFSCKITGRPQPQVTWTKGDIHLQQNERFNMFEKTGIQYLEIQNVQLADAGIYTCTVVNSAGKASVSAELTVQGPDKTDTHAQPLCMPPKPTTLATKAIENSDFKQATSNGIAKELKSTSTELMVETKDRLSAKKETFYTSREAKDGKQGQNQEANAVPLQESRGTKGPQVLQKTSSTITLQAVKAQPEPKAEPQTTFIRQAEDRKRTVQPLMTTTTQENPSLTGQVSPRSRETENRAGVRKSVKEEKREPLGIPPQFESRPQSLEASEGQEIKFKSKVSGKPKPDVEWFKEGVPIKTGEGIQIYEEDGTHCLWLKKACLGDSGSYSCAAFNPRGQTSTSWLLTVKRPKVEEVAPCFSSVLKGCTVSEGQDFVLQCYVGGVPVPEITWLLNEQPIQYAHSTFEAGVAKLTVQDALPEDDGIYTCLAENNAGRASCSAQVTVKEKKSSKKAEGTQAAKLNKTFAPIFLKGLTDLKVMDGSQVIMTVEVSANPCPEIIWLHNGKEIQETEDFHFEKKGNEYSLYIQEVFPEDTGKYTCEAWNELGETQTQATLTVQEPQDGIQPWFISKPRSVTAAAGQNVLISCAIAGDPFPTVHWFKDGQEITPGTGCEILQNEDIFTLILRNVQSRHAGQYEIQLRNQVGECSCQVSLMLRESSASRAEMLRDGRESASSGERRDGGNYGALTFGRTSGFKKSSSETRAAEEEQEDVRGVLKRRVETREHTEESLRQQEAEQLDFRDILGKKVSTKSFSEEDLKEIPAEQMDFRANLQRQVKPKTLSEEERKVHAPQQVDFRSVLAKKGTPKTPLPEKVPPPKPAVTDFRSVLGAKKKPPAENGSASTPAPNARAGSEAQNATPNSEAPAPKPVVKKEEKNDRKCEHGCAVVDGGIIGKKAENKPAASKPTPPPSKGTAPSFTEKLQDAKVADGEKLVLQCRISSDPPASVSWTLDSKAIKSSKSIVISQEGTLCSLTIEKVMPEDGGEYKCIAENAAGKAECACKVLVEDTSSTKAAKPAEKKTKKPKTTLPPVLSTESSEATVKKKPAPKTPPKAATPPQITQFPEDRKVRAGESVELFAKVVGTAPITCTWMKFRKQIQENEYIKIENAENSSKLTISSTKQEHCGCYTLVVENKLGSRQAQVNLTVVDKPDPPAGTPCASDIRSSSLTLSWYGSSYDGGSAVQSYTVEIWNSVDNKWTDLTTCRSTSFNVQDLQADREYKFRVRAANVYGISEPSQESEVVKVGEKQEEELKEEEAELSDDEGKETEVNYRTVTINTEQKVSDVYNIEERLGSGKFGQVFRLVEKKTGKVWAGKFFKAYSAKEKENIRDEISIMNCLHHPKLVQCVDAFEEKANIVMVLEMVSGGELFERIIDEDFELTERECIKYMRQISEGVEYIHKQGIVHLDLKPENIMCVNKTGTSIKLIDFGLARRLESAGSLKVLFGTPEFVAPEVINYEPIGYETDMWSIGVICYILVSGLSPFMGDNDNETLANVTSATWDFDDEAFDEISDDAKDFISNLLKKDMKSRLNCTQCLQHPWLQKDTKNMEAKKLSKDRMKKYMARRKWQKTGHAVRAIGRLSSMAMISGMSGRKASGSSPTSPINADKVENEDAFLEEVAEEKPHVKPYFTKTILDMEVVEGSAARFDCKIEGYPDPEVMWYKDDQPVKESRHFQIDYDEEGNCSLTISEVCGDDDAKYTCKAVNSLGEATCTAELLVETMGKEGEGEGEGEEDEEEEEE

Row | Compound | pIC50 [1] | pIC50 [2] | pIC50 [3] | pIC50 [4] | pIC50 [5] | pIC50 [6]
1 | COc1ccc2c(c1)c1c3c(c4c5ccccc5n(C)c4c1n2CC(O)CN(C)C)C(=O)NC3=O (stereo unspecified) [13-(3-dimethylamino-2-hydroxypropyl)-3-methoxy-12-methyl-6,7,12,13-tetrahydro-5H-indolo[2,3-a]pyrrolo[3,4-c]carbazole-5,7-dione] | 6.92 | – | – | – | – | –
2 | COc1ccc2c(c1)c1c3c(c4c5ccccc5n(CCCC#N)c4c1n2C)C(=O)NC3=O [4-{19-methoxy-23-methyl-12,14-dioxo-3,13,23-triazahexacyclo[14.7.0.0^{2,10}.0^{4,9}.0^{11,15}.0^{17,22}]tricosa-1(16),2(10),4(9),5,7,11(15),17,19,21-nonaen-3-yl}butanenitrile] | – | 7.49 | 8.30 | 6.00 | 6.70 | –
3 | COc1ccc2c(c1)c1c3c(c4c5cc(OC)ccc5n(CCC#N)c4c1n2C)C(=O)NC3=O [3-{7,19-dimethoxy-23-methyl-12,14-dioxo-3,13,23-triazahexacyclo[14.7.0.0^{2,10}.0^{4,9}.0^{11,15}.0^{17,22}]tricosa-1(16),2(10),4(9),5,7,11(15),17,19,21-nonaen-3-yl}propanenitrile] | 6.74 | – | – | – | – | –
4 | COc1ccc2c(c1)c1c3c(c4c5ccccc5n(C)c4c1n2CCCC#N)C(=O)NC3=O [3-(9-methoxy-13-methyl-5,7-dioxo-6,7,12,13-tetrahydro-5H-indolo[2,3-a]pyrrolo[3,4-c]carbazol-12-yl)propyl cyanide] | 7.49 | – | – | – | – | –
5 | CN(C)CCCn1c2ccccc2c2c3c(c4c5ccccc5n(C)c4c21)C(=O)NC3 [23-[3-(dimethylamino)propyl]-3-methyl-3,13,23-triazahexacyclo[14.7.0.0^{2,10}.0^{4,9}.0^{11,15}.0^{17,22}]tricosa-1(16),2(10),4,6,8,11(15),17(22),18,20-nonaen-12-one] | 6.60 | 6.60 | – | – | – | –
6 | Cn1c2ccc(O)cc2c2c3c(c4c5cc(O)ccc5n(CCC#N)c4c21)CNC3=O [3-{7,19-dihydroxy-23-methyl-14-oxo-3,13,23-triazahexacyclo[14.7.0.0^{2,10}.0^{4,9}.0^{11,15}.0^{17,22}]tricosa-1(16),2(10),4(9),5,7,11(15),17,19,21-nonaen-3-yl}propanenitrile] | 7.52 | 7.52 | – | – | – | –
7 | CN(C)CCCn1c2ccccc2c2c3c(c4c5ccccc5[nH]c4c21)C(=O)NC3 [23-[3-(dimethylamino)propyl]-3,13,23-triazahexacyclo[14.7.0.0^{2,10}.0^{4,9}.0^{11,15}.0^{17,22}]tricosa-1(16),2(10),4,6,8,11(15),17(22),18,20-nonaen-12-one] | 6.41 | 6.41 | – | – | < 5.00 | –
8 | COc1ccc2c(c1)c1c3c(c4c5ccccc5n(C)c4c1n2CC(O)CN(C)C)C(=O)NC3 (stereo unspecified) [12-(3-dimethylamino-2-hydroxypropyl)-9-methoxy-13-methyl-6,7,12,13-tetrahydro-5H-indolo[2,3-a]pyrrolo[3,4-c]carbazol-5-one] | 5.04 | – | – | – | – | –
9 | COc1ccc2c(c1)c1c3c(c4c5ccccc5n(CCC#N)c4c1n2C)C(=O)NC3=O [3-{19-methoxy-23-methyl-12,14-dioxo-3,13,23-triazahexacyclo[14.7.0.0^{2,10}.0^{4,9}.0^{11,15}.0^{17,22}]tricosa-1(16),2(10),4(9),5,7,11(15),17,19,21-nonaen-3-yl}propanenitrile] | 7.31 | 6.70 | 8.70 | < 5.52 | 6.40 | < 5.00
10 | CN(C)CC(O)Cn1c2ccccc2c2c3c(c4c5ccccc5n(C)c4c21)C(=O)NC3 (stereo unspecified) [Indolocarbazole deriv.] | 5.26 | 5.26 | – | – | – | < 4.00
11 | Cn1c2ccccc2c2c3c(c4c5ccccc5n(CCC#N)c4c21)C(=O)NC3=O [3-{23-methyl-12,14-dioxo-3,13,23-triazahexacyclo[14.7.0.0^{2,10}.0^{4,9}.0^{11,15}.0^{17,22}]tricosa-1(16),2(10),4(9),5,7,11(15),17,19,21-nonaen-3-yl}propanenitrile] | 7.26 | – | – | – | < 4.52 | –
12 | COc1ccc2c(c1)c1c3c(c4c5ccccc5n(CC(O)CN(C)C)c4c1n2C)C(=O)NC3=O (stereo unspecified) [23-[3-(dimethylamino)-2-hydroxypropyl]-7-methoxy-3-methyl-3,13,23-triazahexacyclo[14.7.0.0^{2,10}.0^{4,9}.0^{11,15}.0^{17,22}]tricosa-1(16),2(10),4,6,8,11(15),17(22),18,20-nonaene-12,14-dione] | – | 6.92 | 8.40 | 5.32 | 6.29 | –
13 | Cn1c2ccccc2c2c3c(c4c5ccccc5n(CCCN)c4c21)CNC3=O [23-(3-aminopropyl)-3-methyl-3,13,23-triazahexacyclo[14.7.0.0^{2,10}.0^{4,9}.0^{11,15}.0^{17,22}]tricosa-1(16),2(10),4,6,8,11(15),17(22),18,20-nonaen-12-one] | 7.74 | 7.74 | – | – | – | –
14 | CN(C)CCCn1c2ccc(O)cc2c2c3c(c4c5cc(O)ccc5[nH]c4c21)C(=O)NC3 [23-[3-(dimethylamino)propyl]-7,19-dihydroxy-3,13,23-triazahexacyclo[14.7.0.0^{2,10}.0^{4,9}.0^{11,15}.0^{17,22}]tricosa-1(16),2(10),4,6,8,11(15),17(22),18,20-nonaen-12-one] | 6.51 | 7.51 | – | – | – | –
15 | COc1ccc2[nH]c3c(c4c(c5c6cc(OC)ccc6n(CCCN(C)C)c35)CNC4=O)c2c1 [23-[3-(dimethylamino)propyl]-7,19-dimethoxy-3,13,23-triazahexacyclo[14.7.0.0^{2,10}.0^{4,9}.0^{11,15}.0^{17,22}]tricosa-1(16),2(10),4,6,8,11(15),17(22),18,20-nonaen-12-one] | 6.66 | 6.66 | – | – | – | –
16 | COc1ccc2c(c1)c1c3c(c4c5ccccc5n(C)c4c1n2CCC#N)C(=O)NC3=O [3-{7-methoxy-23-methyl-12,14-dioxo-3,13,23-triazahexacyclo[14.7.0.0^{2,10}.0^{4,9}.0^{11,15}.0^{17,22}]tricosa-1(16),2(10),4(9),5,7,11(15),17,19,21-nonaen-3-yl}propanenitrile] | 6.70 | 7.31 | 7.80 | – | – | –
17 | CN(C)CC(O)Cn1c2ccccc2c2c3c(c4c5ccccc5n(C)c4c21)C(=O)NC3=O (stereo unspecified) [23-[3-(dimethylamino)-2-hydroxypropyl]-3-methyl-3,13,23-triazahexacyclo[14.7.0.0^{2,10}.0^{4,9}.0^{11,15}.0^{17,22}]tricosa-1(16),2(10),4,6,8,11(15),17(22),18,20-nonaene-12,14-dione] | 6.92 | 6.92 | – | – | – | –
18 | COc1ccc2c(c1)c1c3c(c4c5ccccc5n(CC(O)CN(C)C)c4c1n2C)CNC3=O (stereo unspecified) [23-[3-(dimethylamino)-2-hydroxypropyl]-7-methoxy-3-methyl-3,13,23-triazahexacyclo[14.7.0.0^{2,10}.0^{4,9}.0^{11,15}.0^{17,22}]tricosa-1(16),2(10),4,6,8,11(15),17(22),18,20-nonaen-12-one] | – | 5.04 | 7.07 | 4.64 | 4.82 | < 5.00
19 | Cn1c2ccccc2c2c3c(c4c5ccccc5n(CCC#N)c4c21)CNC3=O [Indolocarbazole deriv.] | 5.24 | – | – | – | – | < 5.00
20 | COc1ccc2c(c1)c1c3c(c4c5cc(OC)ccc5n(CCC#N)c4c1n2C)CNC3=O [3-{7,19-dimethoxy-23-methyl-14-oxo-3,13,23-triazahexacyclo[14.7.0.0^{2,10}.0^{4,9}.0^{11,15}.0^{17,22}]tricosa-1(16),2(10),4(9),5,7,11(15),17,19,21-nonaen-3-yl}propanenitrile] | 5.80 | 5.80 | – | – | – | < 5.00
